Laboratory results taken from ChEMBL document CHEMBL4739712, “Inhibitors of cyclin-dependent kinases” (2020).
The source made the active and inactive calls. No cut-off for these calls is given here.

How the values were obtained:
[1] = molecular target: T1, Cyclin-dependent kinase 12/13 (Homo sapiens) (UniProt Q14004+Q9NYV4); details: Jurkat, dose 500.0 nM, time 6.0 hrs
[2] = molecular target: T1, Cyclin-dependent kinase 12/13 (Homo sapiens); details: Jurkat, dose 25.0 nM, time 6.0 hrs
[3] = molecular target: T1, Cyclin-dependent kinase 12/13 (Homo sapiens); details: Jurkat, dose 500.0 nM, time 4.0 hrs

SMILES | inhibition [1] | inhibition [2] | inhibition [3]
C=CC(=O)Nc1ccc(OC(=O)N2CCC[C@@H](Nc3ncc(SCc4ncc(C(C)(C)C)o4)s3)C2)cc1 | Active |  | 
CN(C)C/C=C/C(=O)NC1CCCC(C(=O)Nc2ncc(SCc3ncc(C(C)(C)C)o3)s2)C1 (stereo not given) | Active |  | 
C=CC(=O)Nc1cccc(C(=O)N2CCCC(Nc3ncc(SCc4ncc(C(C)(C)C)o4)s3)C2)c1 (stereo not given) | Active | inactive | 
C=CC(=O)Nc1ccc(C(=O)N2CCC[C@@H](Nc3ncc(SCc4ncc(C(C)(C)C)o4)s3)C2)c(C)c1 |  |  | Active
